# Columns and labels:
# hippocampal kindled rats = experiment: Hippocampal kindled rat model; assay type: in vivo, Sprague-Dawley rats; conditions: for # Protected/# Tested / Afterdischarge Duration (sec) ± S.E.M. / Seizure Score ± S.E.M.: time of test 15 min; for Seizure Score ± S.E.M.: stages 1-5
# Description: In the hippocampal kindling model (Lothman E W, et al., Epilepsy Res., 1988, 2(6) 367-79), adult male Sprague-Dawley rats are surgically implanted with bipolar electrodes. Seizure score was assessed using the following stages: (1) mouth and facial movements; (2) above symptoms plus head nodding; (3) above symptoms plus forelimb clonus;(4) above symptoms plus rearing; and (5) above symptoms plus falling.
# [1] = tested on: electrically kindled rats (Stage 5 seizures); experiment: Electrically kindled rat model (corneal electrodes); assay type: in vivo, Wistar rats; conditions: one hour after administration; for % Protection: 100% minus % Seizure Activity
# From the text: A similar effect for the enantiomer of Formula (Ib) was also found in the electrically kindled rat model (Racine R., J. Clin. Neurophysiol., 1972, 32, 281-294), an alternative model of kindling. Electrical stimulation through corneal electrodes induces a progression of behavioral seizures similar to those observed in hippocampal kindling.
# Adult male Wistar rats were electrically kindled for 4 seconds (8 mA; 60 Hz) via corneal electrodes for a minimum of Stage 5 seizures.
# One hour after oral administration, % Seizure Activity was assessed as a combined score of seizure activity for each animal for the total number of animals per group; % Protection is derived by subtracting % Seizure Activity om 100%.
smiles,measurement,setting,value
NC(=O)OC[C@@H](O)c1ccccc1Cl [Formula (Ib)],# Protected/# Tested,hippocampal kindled rats; 12.5 mg/kg intraperitoneally,2/7
same,Afterdischarge Duration (sec) ± S.E.M.,hippocampal kindled rats; 12.5 mg/kg intraperitoneally,52.00 ± 10.88 s
same,Seizure Score ± S.E.M.,hippocampal kindled rats; 12.5 mg/kg intraperitoneally,3.43 ± 0.53
same,# Protected/# Tested,hippocampal kindled rats; 25 mg/kg intraperitoneally,4/7
same,Afterdischarge Duration (sec) ± S.E.M.,hippocampal kindled rats; 25 mg/kg intraperitoneally,38.29 ± 13.48 s
same,Seizure Score ± S.E.M.,hippocampal kindled rats; 25 mg/kg intraperitoneally,2.29 ± 0.78
same,# Protected/# Tested,hippocampal kindled rats; 37.5 mg/kg intraperitoneally,5/7
same,Afterdischarge Duration (sec) ± S.E.M.,hippocampal kindled rats; 37.5 mg/kg intraperitoneally,38.00 ± 11.87 s
same,Seizure Score ± S.E.M.,hippocampal kindled rats; 37.5 mg/kg intraperitoneally,2.29 ± 0.75
same,ED50,"hippocampal kindled rats; Rattus norvegicus, ip, intraperitoneally, 95% confidence interval of 12.5 to 37.5 mg/kg, read-out: calculated ED50 for reduction of the seizure score from 5 to 3 or less",~22.5 mg/kg
same,% Seizure Activity,[1]; 1 mg/kg oral,93.3%
same,% Protection,[1]; 1 mg/kg oral,6.7%
same,% Seizure Activity,[1]; 3 mg/kg oral,46.7%
same,% Protection,[1]; 3 mg/kg oral,53.3%
same,% Seizure Activity,[1]; 10 mg/kg oral,33.3%
same,% Protection,[1]; 10 mg/kg oral,66.7%
same,% Seizure Activity,[1]; 100 mg/kg oral,0%
same,% Protection,[1]; 100 mg/kg oral,100%
same,ED50,"[1]; Rattus norvegicus, 1 h, oral, expression of Stage 5 seizures",4.2 mg/kg
